Results from US11111251B2, “Positive allosteric modulators of the muscarinic acetylcholine receptor M1” (Vanderbilt University, priority 2016, dated 2021).

Biological target: T1, human mAChR M1 (Homo sapiens, UniProt P11229)
T1 sequence (P11229 1-460): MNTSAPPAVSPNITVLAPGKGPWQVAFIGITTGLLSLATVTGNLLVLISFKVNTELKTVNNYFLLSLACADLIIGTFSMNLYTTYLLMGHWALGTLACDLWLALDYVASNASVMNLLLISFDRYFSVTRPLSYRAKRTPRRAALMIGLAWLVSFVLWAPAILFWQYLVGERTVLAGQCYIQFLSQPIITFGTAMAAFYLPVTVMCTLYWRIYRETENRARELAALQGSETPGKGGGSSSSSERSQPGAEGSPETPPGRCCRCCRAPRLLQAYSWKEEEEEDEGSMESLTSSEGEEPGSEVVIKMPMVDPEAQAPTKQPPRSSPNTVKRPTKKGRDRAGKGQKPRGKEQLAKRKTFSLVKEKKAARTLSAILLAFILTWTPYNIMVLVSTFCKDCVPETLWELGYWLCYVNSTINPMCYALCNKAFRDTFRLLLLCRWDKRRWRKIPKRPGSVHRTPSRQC
Experiment: mAChR M1 cell-based functional assay: calcium mobilization, positive allosteric modulator mode (increase in EC20 acetylcholine response)
Details: Table 2, human M1; for EC50: read-out: Human M1 EC50; for Emax: read-out: Human M1 Emax (%)
Outline: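 PAM potency reflects the concentration-dependent increase in calcium response to an EC20 acetylcholine challenge, given 144 s into a 300 s read after compound addition at 4 s (EC80 follows at 230 s). Cells were hM1-expressing CHO-K1, loaded 50 min with Fluo-4 AM. Curves used 11 points at 1:3 dilutions and four-parameter logistic fitting.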

| EC50 | Emax | Compound |
| --- | --- | --- |
| 13.4 nM | 71.2% | Cn1cc(-c2ccc(Cc3cc(C(=O)N[C@H]4CCCC[C@@H]4O)nc4ccsc34)cn2)cn1 [Compound 224, N-[(1S,2S)-2-hydroxycyclohexyl]-7-[[6-(1-methylpyrazol-4-yl)-3-pyridyl]methyl]thieno[3,2-b]pyridine-5-carboxamide] |
| 7.31 nM | 63.6% | Cn1cc(-c2ccc(Cc3cc(C(=O)N[C@H]4CCOC[C@@H]4O)nc4ccsc34)cn2)cn1 [Compound 225, N-[(3R,4S)-3-hydroxytetrahydropyran-4-yl]-7-[[6-(1-methylpyrazol-4-yl)-3-pyridyl]methyl]thieno[3,2-b]pyridine-5-carboxamide] |
| 9.36 nM | 66.2% | Cn1cc(-c2ccc(Cc3cc(C(=O)N[C@H]4CCCCC[C@@H]4O)nc4ccsc34)cn2)cn1 [Compound 226, N-[(1S,2S)-2-hydroxycycloheptyl]-7-[[6-(1-methylpyrazol-4-yl)-3-pyridyl]methyl]thieno[3,2-b]pyridine-5-carboxamide] |
| 125 nM | 79.8% | O=C(N[C@@H]1CC[C@H]1O)c1cc(Cc2ccc(-n3cccn3)cc2)c2sccc2n1 [Compound 227, N-[(1R,2R)-2-hydroxycyclobutyl]-7-[(4-pyrazol-1-ylphenyl)methyl]thieno[3,2-b]pyridine-5-carboxamide] |
| 160 nM | 81.8% | O=C(NC1CCOCC1)c1cc(Cc2ccc(-n3cccn3)cc2)c2sccc2n1 [Compound 228, 7-[(4-pyrazol-1-ylphenyl)methyl]-N-tetrahydropyran-4-yl-thieno[3,2-b]pyridine-5-carboxamide] |
| 27.1 nM | 78.6% | Cn1cc(-c2ccc(Cc3cc(C(=O)NC4CCOCC4)nc4ccsc34)cc2)nn1 [Compound 229, 7-[[4-(1-methyltriazol-4-yl)phenyl]methyl]-N-tetrahydropyran-4-yl-thieno[3,2-b]pyridine-5-carboxamide] |
| 175 nM | 77.7% | Cc1nc(-c2ccc(Cc3cc(C(=O)NC4CCOCC4)nc4ccsc34)cc2)co1 [Compound 230, 7-[[4-(2-methyloxazol-4-yl)phenyl]methyl]-N-tetrahydropyran-4-yl-thieno[3,2-b]pyridine-5-carboxamide] |
| 68.7 nM | 88.5% | O=C(NC1CC2(COC2)C1)c1cc(Cc2ccc(-c3cscn3)cc2)c2sccc2n1 [Compound 231, N-(2-oxaspiro[3.3]heptan-6-yl)-7-[(4-thiazol-4-ylphenyl)methyl]thieno[3,2-b]pyridine-5-carboxamide] |
| 134 nM | 75.7% | O=C(NC1CCOCC1)c1cc(Cc2ccc(-c3cscn3)cc2)c2sccc2n1 [Compound 232, N-tetrahydropyran-4-yl-7-[(4-thiazol-4-ylphenyl)methyl]thieno[3,2-b]pyridine-5-carboxamide] |
| 161 nM | 67.8% | Cc1ccc([C@H](F)c2cc(C(=O)N[C@H]3CCCC[C@@H]3O)nc3ccsc23)cn1 [Compound 233] |
| 1370 nM | 64.6% | Cc1ccc([C@@H](F)c2cc(C(=O)N[C@H]3CCCC[C@@H]3O)nc3ccsc23)cn1 [Compound 234] |
| 1010 nM | 71.1% | Cc1ccc(Cc2cc(C(=O)NC3CCCCCC3(C)O)nc3ccsc23)cn1 (stereo not drawn) [Compound 235, N-(2-hydroxy-2-methyl-cycloheptyl)-7-[(6-methyl-3-pyridyl)methyl]thieno[3,2-b]pyridine-5-carboxamide] |
| 2680 nM | 78.2% | Cc1cc2nc(C(=O)N[C@H]3CCC[C@@H]3O)cc(Cc3ccc(-n4cccn4)cc3)c2s1 [Compound 236, N-[(1S,2S)-2-hydroxycyclopentyl]-2-methyl-7-[(4-pyrazol-1-ylphenyl)methyl]thieno[3,2-b]pyridine-5-carboxamide] |
| 455 nM | 85.2% | Cc1cc2nc(C(=O)N[C@H]3CCCC[C@@H]3O)cc(Cc3ccc(-n4cccn4)cc3)c2s1 [Compound 237, N-[(1S,2S)-2-hydroxycyclohexyl]-2-methyl-7-[(4-pyrazol-1-ylphenyl)methyl]thieno[3,2-b]pyridine-5-carboxamide] |
| 108 nM | 84.7% | Cc1cc2nc(C(=O)N[C@H]3CCOC[C@@H]3O)cc(Cc3ccc(-n4cccn4)cc3)c2s1 [Compound 238, N-[(3R,4S)-3-hydroxytetrahydropyran-4-yl]-2-methyl-7-[(4-pyrazol-1-ylphenyl)methyl]thieno[3,2-b]pyridine-5-carboxamide] |
| 3080 nM | 81.5% | Cc1cc2nc(C(=O)NC3CCOCC3)cc(Cc3ccc(-n4cccn4)cc3)c2s1 [Compound 239, 2-methyl-7-[(4-pyrazol-1-ylphenyl)methyl]-N-tetrahydropyran-4-yl-thieno[3,2-b]pyridine-5-carboxamide] |
| > 10000 nM | 19.9% | Cc1nn(C)c(C)c1-c1ccc(Cc2cc(C(=O)N[C@@H]3CC[C@H]3O)nc3ccsc23)cc1 [Compound 240, N-[(1R,2R)-2-hydroxycyclobutyl]-7-[[4-(1,3,5-trimethylpyrazol-4-yl)phenyl]methyl]thieno[3,2-b]pyridine-5-carboxamide] |
| > 10000 nM | 18.8% | Cc1nn(C)c(C)c1-c1ccc(Cc2cc(C(=O)NC3CC4(COC4)C3)nc3ccsc23)cc1 [Compound 241, N-(2-oxaspiro[3.3]heptan-6-yl)-7-[[4-(1,3,5-trimethylpyrazol-4-yl)phenyl]methyl]thieno[3,2-b]pyridine-5-carboxamide] |
| > 10000 nM | 17.8% | Cc1nn(C)c(C)c1-c1ccc(Cc2cc(C(=O)N[C@H]3CCC[C@@H]3O)nc3ccsc23)cc1 [Compound 242] |
| > 10000 nM | 17.9% | Cc1nn(C)c(C)c1-c1ccc(Cc2cc(C(=O)NC3CCOCC3)nc3ccsc23)cc1 [Compound 243, N-tetrahydropyran-4-yl-7-[[4-(1,3,5-trimethylpyrazol-4-yl)phenyl]methyl]thieno[3,2-b]pyridine-5-carboxamide] |
| 187 nM | 15% | Cc1nn(C)cc1-c1ccc(Cc2cc(C(=O)NC3COC3)nc3ccsc23)cc1 [Compound 244, 7-[[4-(1,3-dimethylpyrazol-4-yl)phenyl]methyl]-N-(oxetan-3-yl)thieno[3,2-b]pyridine-5-carboxamide] |
| > 10000 nM | 16.2% | Cc1nn(C)cc1-c1ccc(Cc2cc(C(=O)NC3CN(C(C)(C)C)C3)nc3ccsc23)cc1 [Compound 245, N-(1-tert-butylazetidin-3-yl)-7-[[4-(1,3-dimethylpyrazol-4-yl)phenyl]methyl]thieno[3,2-b]pyridine-5-carboxamide] |
| > 10000 nM | 16% | COC1CC(NC(=O)c2cc(Cc3ccc(-c4cn(C)nc4C)cc3)c3sccc3n2)C1 (stereo not drawn) [Compound 246, 7-[[4-(1,3-dimethylpyrazol-4-yl)phenyl]methyl]-N-(3-methoxycyclobutyl)thieno[3,2-b]pyridine-5-carboxamide] |
| 4060 nM | 30.6% | Cc1nn(C)cc1-c1ccc(Cc2cc(C(=O)N[C@H]3CCC[C@@H]3O)nc3ccsc23)cc1 [Compound 247, 7-[[4-(1,3-dimethylpyrazol-4-yl)phenyl]methyl]-N-[(1S,2S)-2-hydroxycyclopentyl]thieno[3,2-b]pyridine-5-carboxamide] |
| 4880 nM | 71.3% | Cc1nn(C)cc1-c1ccc(Cc2cc(C(=O)N[C@H]3CCOC[C@@H]3O)nc3ccsc23)cc1 [Compound 248, 7-[[4-(1,3-dimethylpyrazol-4-yl)phenyl]methyl]-N-[(3R,4S)-3-hydroxytetrahydropyran-4-yl]thieno[3,2-b]pyridine-5-carboxamide] |
| > 10000 nM | 42.1% | Cc1nn(C)cc1-c1ccc(Cc2cc(C(=O)N[C@H]3COCC[C@@H]3O)nc3ccsc23)cc1 [Compound 249, 7-[[4-(1,3-dimethylpyrazol-4-yl)phenyl]methyl]-N-[(3S,4S)-4-hydroxytetrahydropyran-3-yl]thieno[3,2-b]pyridine-5-carboxamide] |
| > 10000 nM | 48.1% | Cc1nn(C)cc1-c1ccc(Cc2cc(C(=O)N[C@H]3CCCC[C@@H]3O)nc3ccsc23)cc1 [Compound 250] |
| 234 nM | 70.3% | Cn1ccc(-c2ccc(Cc3cc(C(=O)N[C@@H]4CC[C@H]4O)nc4ccsc34)cc2)n1 [Compound 251, N-[(1R,2R)-2-hydroxycyclobutyl]-7-[[4-(1-methylpyrazol-3-yl)phenyl]methyl]thieno[3,2-b]pyridine-5-carboxamide] |
| 258 nM | 78.4% | Cn1ccc(-c2ccc(Cc3cc(C(=O)NC4CC5(COC5)C4)nc4ccsc34)cc2)n1 [Compound 252, 7-[[4-(1-methylpyrazol-3-yl)phenyl]methyl]-N-(2-oxaspiro[3.3]heptan-6-yl)thieno[3,2-b]pyridine-5-carboxamide] |
| 144 nM | 74.5% | Cn1ccc(-c2ccc(Cc3cc(C(=O)N[C@H]4CCC[C@@H]4O)nc4ccsc34)cc2)n1 [Compound 253, N-[(1S,2S)-2-hydroxycyclopentyl]-7-[[4-(1-methylpyrazol-3-yl)phenyl]methyl]thieno[3,2-b]pyridine-5-carboxamide] |
